Residue numbers refer to the chain shown, from its start.
How the values were obtained:
Dbl-transformed MEFs = conditions: adapted from Wang et al. 2010; cited from earlier work
488-D391K-GAC = target: T1, 488-D391K-GAC (Mus musculus, UniProt D3Z7P3, D391K); assay: Real-time binding read-out by fluorescence quenching, dimer mutant; conditions: 20 nM 488-labeled protein, 968 titration
T1 construct: plasmid (residues 72-603 for GAC, 72-674 for KGA); His-tag with thrombin cleavage site (N, cleaved yes); made in house; host or cells: pET23a vector
T1 sequence (D3Z7P3 72-603 isoform D3Z7P3-2 D391K): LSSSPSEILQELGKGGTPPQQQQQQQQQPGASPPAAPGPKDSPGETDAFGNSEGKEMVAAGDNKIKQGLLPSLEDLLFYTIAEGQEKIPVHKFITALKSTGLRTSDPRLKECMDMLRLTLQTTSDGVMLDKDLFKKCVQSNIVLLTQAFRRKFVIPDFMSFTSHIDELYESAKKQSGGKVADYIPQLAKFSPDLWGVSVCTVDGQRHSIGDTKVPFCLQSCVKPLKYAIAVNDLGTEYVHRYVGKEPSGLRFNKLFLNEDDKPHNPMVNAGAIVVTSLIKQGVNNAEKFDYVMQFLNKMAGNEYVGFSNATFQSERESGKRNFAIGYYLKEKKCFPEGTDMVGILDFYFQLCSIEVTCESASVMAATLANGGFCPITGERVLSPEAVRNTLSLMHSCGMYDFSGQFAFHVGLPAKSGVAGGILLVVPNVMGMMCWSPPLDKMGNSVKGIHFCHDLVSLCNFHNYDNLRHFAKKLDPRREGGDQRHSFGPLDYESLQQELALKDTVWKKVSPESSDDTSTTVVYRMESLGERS
Description: (§1) Real-time fluorescence monitoring of 488-GAC fluorescence and NADH fluorescence was performed on a Varian Carry Eclipse Fluorometer, whereas small molecule inhibition and binding titrations were performed in a 96-well format using Grenier non-binding 96-well plates in a Tecan Saphire absorbance and fluorescence plate reader. Samples for monitoring real time binding of 968 to 488-GAC were prepared by adding 10 […] (490 nm excitation/520 nm emission). Similarly, this method was replicated for monitoring real time binding of 968 to KGA and mutant forms of GAC, namely 488-D391K-GAC and 488-K316E-D391K-R459E-GAC. Titrations of 968 with mutant forms of GAC were done in triplicate and quantified by the following equation
(§2) [formula] where F is the normalized fluorescence at given drug concentration (i.e., F/F0), and Fsat is the normalized fluorescence at saturating concentrations of drug, as shown in FIG. 7A. […] 10 nM WT GAC was added and allowed to equilibrate 2 minutes before beginning to monitor fluorescence of 488-GAC (490 nm excitation, 520 nm emission) and NADH fluorescence (340 nm excitation, 490 nm emission). […] The activity of GAC was indirectly measured by the NADH produced by the added glutamate dehydrogenase, which converts the product of glutaminase activity, glutamate, to α-ketoglutarate and ammonia through reducing NAD^+ to NADH. […]

[1] = target: T2, 488-K316E-D391K-R459E-GAC (Mus musculus, UniProt D3Z7P3, D391K/K316E/R459E); assay: Real-time binding read-out by fluorescence quenching, monomer mutant; conditions: 20 nM 488-labeled protein, 968 titration
T2 construct: plasmid (residues 72-603 for GAC, 72-674 for KGA); His-tag with thrombin cleavage site (N, cleaved yes); made in house; host or cells: pET23a vector
T2 sequence (D3Z7P3 72-603 isoform D3Z7P3-2 K316E/D391K/R459E): T1 sequence (D3Z7P3 72-603 isoform D3Z7P3-2 D391K) with K245E, R388E
Description: as §1, with “10 μL” for “10”
as §2

binding to dimeric GAC (D391K) mutant (488-D391K-GAC): capable of binding
binding to monomeric GAC (K316E-D391K-R459E) mutant, relative affinity [1]: highest affinity
SMILES: CN(C)c1ccc(C2Nc3ccc4ccccc4c3C3=C2C(=O)CC(C)(C)C3)cc1Br (stereo not drawn) [compound 968]
inhibition of the ability of Dbl-transformed MEFs to form foci (Dbl-transformed MEFs): dose dependent

From patent US11046945B2, “Labeled glutaminase proteins, isolated glutaminase protein mutants, methods of use, and kit” (CORNELL UNIVERSITY, priority 2013, dated 2021)
